Experiments:
[1] = molecular target: T1, cystic fibrosis transmembrane conductance regulator (CFTR) (Homo sapiens, UniProt P13569); conditions: in microsomes and in intact cells; cited from earlier work
T1 construct: host or cells: microsomes and intact cells (not further described)

HT1376 cells = test: LDH release cytotoxicity assay; format: cell-based; conditions: 24 hours, 0, 5, 10 and 20 μM; low phosphorylated Cdc27
[2] = molecular target: T2, Cdc27 association with p55Cdc20, APC2, APC8 (Homo sapiens, UniProt P30260); test: Co-immunoprecipitation with anti-Cdc27 antibodies; format: cell-based; conditions: DAOY, curcumin for 8 hours
T2 construct: endogenous in cells
Protocol: For immunoprecipitation, cells were lysed at 4° C. for 30 min in a buffer of 50 mM HEPES, pH 7.4, 150 mM NaCl 0.5% NP-40, 1 mM EDTA, 1 mM Na3VO4, 1 mM aprotinin, 1 mM leupeptin and 1 mM PMSF. Equal amounts of protein (from 0.5 to 2 mg) were incubated with Cdc27 antibody for 4 hours at 4° C. followed by protein G-Sepharose (GE Healthcare) for 2 hours, washed extensively, and analyzed by immunoblotting with indicated antibodies. For λ-phosphatase treatment, Cdc27 was immunoprecipitated as above except that phosphatase and protease inhibitors were omitted and then incubated with λ-[…]phosphatase according to the manufacturer's protocol (New England Biolabs, Ipswich, Mass.).
Proper APC/C function requires co-activator proteins such as Cdc20 or Cdh1 that may facilitate the recruitment of substrates. […] Cell lysates were subjected to immunoprecipitation with anti-Cdc27 antibodies. Immunoprecipitated proteins were immunoblotted with antibodies to APC2, APC8, p55 Cdc20 or Cdh1. Immunoblots of total cell lysates are shown to ensure equal loading. […] Under the experimental conditions used, Cdh1 was not found to be associating with Cdc27 (FIG. 8C).

MDCK cells = test: LDH release cytotoxicity assay; format: cell-based; conditions: 24 hours, 0, 5, 10 and 20 μM; low phosphorylated Cdc27
Protocol: Lactate dehydrogenase (LDH) levels as a measure of cell death were determined using the Non-radioactive Cytotoxicity kit (Promega, Madison, Wis.) according to manufacturer's instructions. […] Cell debris was removed by centrifugation. Viable cell LDH was collected from cells lysed by freezing for 15 minutes at −70° C. followed by thawing at 37° C. The medium was collected and cleared from cell debris by centrifugation. The relative release of LDH was determined as the ratio of released LDH versus total LDH from viable cells.

Cdc27 [3] = test: Cdc27 immunoblot of cell lines after curcumin treatment; format: cell-based; conditions: 20 μM curcumin for 0, 4, 8 and 24 hours; DAOY, NT2, D283 Med, D341 Med, HCT116, HT1376, RT4, MDCK
Protocol: Cell lysates were prepared in a buffer containing 20 mM Tris (pH 7.5), 150 mM NaCl, 1 mM EDTA, 1 mM EGTA, 0.1% Triton X-100, 2.5 mM sodium pyrophosphate, 1 mM β-glycerol phosphate, 1 mM sodium vanadate, 1 mM phenylmethylsulfonyl fluoride and 5 μg/ml of antipapain, leupeptin and pepstatin (protease inhibitor cocktail). Protein concentrations were determined by the Dc protein assay (Bio-Rad, Hercules, Calif.). Equal amounts of protein were resolved by SDS-PAGE and transferred to nitrocellulose. The membranes were blocked in 5% non-fat milk in Tris-buffered saline with 0.1% […] (TBST). Primary antibodies diluted in 5% bovine serum albumin/TBST were incubated overnight at 4° C. and HRP-conjugated secondary antibodies in 5% non-fat milk/TBST for 2 hours at room temperature. Protein bands were visualized by Enhanced Chemiluminescence Plus (GE Healthcare, Piscataway, N.J.).
The cell lines DAOY, NT2, D283 Med, D341 Med (brain); HCT116 (colon); HT1376, RT4 (bladder); MDCK (kidney) were screened for Cdc27 phosphorylation by immunoblot of Cdc27. […] Actin immunoblot is shown as loading control.
Arrows indicate crosslinked Cdc27, while arrowheads show phosphorylated Cdc27. Equal amounts of protein were used as shown by actin immunoblot.

Cdc27 [4] = molecular target: T3, Cdc27 (Mus musculus, UniProt A2A6Q5); test: Cdc27 immunoblot of medulloblastoma samples from treated Smo/Smo mice; format: in vivo; conditions: curcumin-treated vs corn oil control mice
T3 construct: from tissue; host or cells: medulloblastoma tumours of Smo/Smo mice
Protocol: Tumors of control and curcumin-treated mice were harvested exactly as described (Lee et al., 2011, BMC Cancer 11:144). Animal experiments were performed according to the NIH Guide for the Care and Use of Experimental Animals and approved by our Institutional Animal Care and Use Committee.
Cdc27 levels in the Smo/Smo mouse tumors were determined by immunoblot of Cdc27. Tubulin is shown for equal loading. The Cdc27 levels were reduced (FIG. 4) when compared with control mice.

T3 sequence (A2A6Q5 whole entry): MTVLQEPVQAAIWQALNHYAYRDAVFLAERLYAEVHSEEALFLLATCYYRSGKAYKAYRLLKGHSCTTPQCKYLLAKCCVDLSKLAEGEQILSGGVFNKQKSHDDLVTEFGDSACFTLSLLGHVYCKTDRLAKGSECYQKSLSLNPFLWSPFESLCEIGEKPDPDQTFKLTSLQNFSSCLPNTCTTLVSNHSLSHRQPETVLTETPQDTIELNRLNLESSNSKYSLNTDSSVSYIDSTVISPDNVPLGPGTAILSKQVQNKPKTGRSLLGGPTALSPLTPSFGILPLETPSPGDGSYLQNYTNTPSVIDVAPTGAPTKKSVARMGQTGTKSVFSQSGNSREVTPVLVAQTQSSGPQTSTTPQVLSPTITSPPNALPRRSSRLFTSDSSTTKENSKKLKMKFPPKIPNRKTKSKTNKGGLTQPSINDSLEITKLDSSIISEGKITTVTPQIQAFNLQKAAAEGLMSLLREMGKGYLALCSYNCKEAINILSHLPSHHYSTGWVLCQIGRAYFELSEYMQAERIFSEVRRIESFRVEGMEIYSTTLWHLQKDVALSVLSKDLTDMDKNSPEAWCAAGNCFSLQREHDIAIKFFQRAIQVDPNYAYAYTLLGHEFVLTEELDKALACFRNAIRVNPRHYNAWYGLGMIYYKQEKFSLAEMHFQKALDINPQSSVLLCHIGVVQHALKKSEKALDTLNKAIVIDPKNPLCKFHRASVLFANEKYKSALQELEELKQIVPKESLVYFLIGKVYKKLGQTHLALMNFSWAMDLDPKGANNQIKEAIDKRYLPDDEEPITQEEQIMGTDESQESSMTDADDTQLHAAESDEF
T1 sequence (P13569 whole entry, species assumed): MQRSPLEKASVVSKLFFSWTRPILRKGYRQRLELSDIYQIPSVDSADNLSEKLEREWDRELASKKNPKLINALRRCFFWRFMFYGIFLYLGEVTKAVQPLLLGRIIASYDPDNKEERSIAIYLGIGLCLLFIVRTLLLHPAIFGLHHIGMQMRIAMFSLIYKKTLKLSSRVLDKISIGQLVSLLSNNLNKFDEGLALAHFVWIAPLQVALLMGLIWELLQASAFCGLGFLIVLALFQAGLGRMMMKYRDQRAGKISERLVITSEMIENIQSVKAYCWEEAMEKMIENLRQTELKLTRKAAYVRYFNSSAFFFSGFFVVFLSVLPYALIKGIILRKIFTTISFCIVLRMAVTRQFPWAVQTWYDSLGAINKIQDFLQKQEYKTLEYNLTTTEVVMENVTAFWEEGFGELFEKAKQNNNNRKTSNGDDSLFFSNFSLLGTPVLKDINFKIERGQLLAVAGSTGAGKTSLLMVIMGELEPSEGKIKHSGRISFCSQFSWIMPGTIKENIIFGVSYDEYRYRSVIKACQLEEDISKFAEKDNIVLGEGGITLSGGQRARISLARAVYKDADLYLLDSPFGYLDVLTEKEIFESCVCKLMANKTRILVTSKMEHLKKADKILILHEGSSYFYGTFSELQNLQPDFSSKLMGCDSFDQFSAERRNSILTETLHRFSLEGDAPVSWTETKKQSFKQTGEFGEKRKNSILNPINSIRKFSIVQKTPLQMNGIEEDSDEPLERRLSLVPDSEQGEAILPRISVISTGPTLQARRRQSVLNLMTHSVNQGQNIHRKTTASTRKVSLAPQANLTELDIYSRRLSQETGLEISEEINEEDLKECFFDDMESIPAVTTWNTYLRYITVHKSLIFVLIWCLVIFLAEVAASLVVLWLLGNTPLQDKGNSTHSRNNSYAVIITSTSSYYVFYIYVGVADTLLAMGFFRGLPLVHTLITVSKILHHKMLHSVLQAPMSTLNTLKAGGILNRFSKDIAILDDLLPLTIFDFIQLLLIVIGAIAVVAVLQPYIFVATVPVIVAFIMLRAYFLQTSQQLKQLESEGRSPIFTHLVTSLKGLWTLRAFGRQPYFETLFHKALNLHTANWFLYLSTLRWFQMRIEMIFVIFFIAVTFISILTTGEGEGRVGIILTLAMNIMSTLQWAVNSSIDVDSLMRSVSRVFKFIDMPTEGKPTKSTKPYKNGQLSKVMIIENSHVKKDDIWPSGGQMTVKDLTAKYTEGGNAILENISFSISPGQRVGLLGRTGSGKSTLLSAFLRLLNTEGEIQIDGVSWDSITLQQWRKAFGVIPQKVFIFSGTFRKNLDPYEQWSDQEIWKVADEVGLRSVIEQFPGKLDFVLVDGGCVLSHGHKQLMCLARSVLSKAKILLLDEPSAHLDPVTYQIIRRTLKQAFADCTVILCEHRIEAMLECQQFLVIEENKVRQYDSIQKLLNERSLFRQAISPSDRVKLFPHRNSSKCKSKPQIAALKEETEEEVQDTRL

Cdc27 association with the APC/C subunits APC2 and APC8 [2]: not affected | p55Cdc20 association with Cdc27 ([2]; compared to control cells): dramatically reduced | Cdc27 levels in Smo/Smo mouse tumors (Cdc27 [4]): reduced
Structure (SMILES): COc1cc(/C=C/C(=O)CC(=O)/C=C/c2ccc(O)c(OC)c2)ccc1O [Curcumin, (E,E)-1,7-bis(4-hydroxy-3-methoxyphenyl)-1,6-heptadiene-3,5-dion]
crosslinking of CFTR polypeptides [1]: can crosslink CFTR polypeptides into SDS-resistant oligomers | sensitivity to curcumin-induced apoptosis (LDH release) (HT1376 cells): almost unaffected | sensitivity to curcumin-induced apoptosis (LDH release) (MDCK cells): almost unaffected | crosslinking of Cdc27 in cell lines (Cdc27 [3]): Only in cell lines with the phosphorylated form of Cdc27 was curcumin able to crosslink Cdc27

Source: patent publication US8835124B2, “Method for treating cancer with agents that bind phosphorylated CDC27” (The Nemours Foundation, priority 2011, dated 2014)
